According to US20230131111A1, “BIODEGRADABLE POLYIMIDAZOLIUMS AND OLIGOIMIDAZOLIUMS” (Nanyang Technological University, priority 2020, published 2023):

What was measured:
P. aeruginosa PAO1 = experiment: MIC90 broth microdilution; format: cell-based, Pseudomonas aeruginosa
MRSA BAA39 = experiment: MIC broth microdilution; format: cell-based, Staphylococcus aureus
S. aureus (SA) = experiment: MIC broth microdilution; format: cell-based, Staphylococcus aureus
E. coli (EC) = experiment: MIC broth microdilution; format: cell-based, Escherichia coli
3T3 cells = experiment: Mammalian cell cytotoxicity, MTT; format: cell-based, Mouse; settings: mouse embryonic fibroblast 3T3 cells, MTT
MRSA BAA39 biofilm = experiment: MBEC antibiofilm assay; settings: 4 h treatment
Procedure: (§1) The MBEC was measured using micro-titre plate-based technology. Briefly, 160 μL of MRSA BAA39 or P. aeruginosa O1 suspension (cell density at ˜10^7 CFU/mL) was added into the 96-well growth plate covered by a lid containing MBEC pegs. Biofilm were grown on the peg lid after incubation at 37° C. for 24-48 h. After removing planktonic bacteria by washing with PBS twice, the lid with biofilm were transferred into the challenge plate which contained two-fold serial dilutions of one of P1-P6 solution, with total volume of 200 μL in each well. The treatment was performed at room temperature for 4 h. After that, the peg lid was washed again with PBS and transferred to a recovery plate which contained PBS (200 μL) in each well. Biofilm bacteria that survived were dislodged from the peg lid by sonication for 30±5 min, and detached bacteria were then 10-fold serial-diluted in sterile PBS and spread on agar plates. After incubation at 37° C. for 24 h, the colonies were counted.

P. aeruginosa O1 biofilm = experiment: MBEC antibiofilm assay; settings: 4 h treatment
Procedure: as §1

With Benzalkonium chloride [C3] the “MIC PAO1” value (P. aeruginosa PAO1) was 128 µg/mL, the “MIC MRSA BAA39” value (MRSA BAA39) was 1 µg/mL and the “MIC SA” value (S. aureus (SA)) was 1 to 2 µg/mL. For the same substance, the “MIC EC” value (E. coli (EC)) was 16 µg/mL, the IC50 (3T3 cells) was 10 µg/mL and the antibiofilm efficacy rank (MRSA BAA39 biofilm) was “P(ImC8)>P(ImC8-co-ImC8D)-50%˜P(ImC6)>BAC”. The antibiofilm potency order (P. aeruginosa O1 biofilm) was “P(ImC8)>P(ImC8-co-ImC8D)-50%>P(ImC6)>BAC”.
